{
  "source": "patent US20210255193A1",
  "about": "“LYSINE REACTIVE PROBES AND USES THEREOF” (The Scripps Research Institute, priority 2017, published 2021)",
  "experiment_in_all_cases": "competitive isoTOP-ABPP",
  "type_in_all_cases": "binding",
  "key": {"[1]": {"molecular_target": "T1, EHD1 EH domain-containing protein 1 (Homo sapiens, UniProt Q9H4M9)", "T1 construct": "endogenous in cells; host or cells: MDA-MB-231 (soluble fraction of lysate)", "T1 sequence (Q9H4M9 1-534)": "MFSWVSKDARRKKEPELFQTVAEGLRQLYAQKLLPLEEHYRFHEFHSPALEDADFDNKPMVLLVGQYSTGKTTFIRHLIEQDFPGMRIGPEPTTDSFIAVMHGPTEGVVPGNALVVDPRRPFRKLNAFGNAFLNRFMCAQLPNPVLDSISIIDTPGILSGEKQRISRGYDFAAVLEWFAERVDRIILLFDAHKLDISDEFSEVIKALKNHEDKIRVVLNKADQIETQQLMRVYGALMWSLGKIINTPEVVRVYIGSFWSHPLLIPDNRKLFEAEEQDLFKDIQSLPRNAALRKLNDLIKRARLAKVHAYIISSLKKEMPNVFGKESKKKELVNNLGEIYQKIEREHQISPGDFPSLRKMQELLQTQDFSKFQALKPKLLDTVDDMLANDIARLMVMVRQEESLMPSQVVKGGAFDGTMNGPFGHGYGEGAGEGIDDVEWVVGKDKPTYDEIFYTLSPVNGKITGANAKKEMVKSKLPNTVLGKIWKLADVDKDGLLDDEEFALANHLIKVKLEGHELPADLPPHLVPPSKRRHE", "outline": "(§1)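 Readout: isotopic light/heavy MS1 peak-area ratio (R, DMSO heavy over compound light), median across peptides sharing a modified lysine. Lysate received fragment (activated esters 50 μM, guanidinylating agents 100 μM final) or DMSO, then 0.1 mM STP-alkyne probe for 1 h at ambient temperature.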"}, "[2]": {"molecular_target": "T2, PTGR1 Prostaglandin reductase 1 (Homo sapiens, UniProt Q14914)", "T2 construct": "isoTOP-ABPP experiments performed in cell lysates (in vitro); endogenous in cells; host or cells: soluble proteome of human cancer cell lines (MDA-MB-231; Ramos and Jurkat also prepared)", "T2 sequence (Q14914 whole entry)": "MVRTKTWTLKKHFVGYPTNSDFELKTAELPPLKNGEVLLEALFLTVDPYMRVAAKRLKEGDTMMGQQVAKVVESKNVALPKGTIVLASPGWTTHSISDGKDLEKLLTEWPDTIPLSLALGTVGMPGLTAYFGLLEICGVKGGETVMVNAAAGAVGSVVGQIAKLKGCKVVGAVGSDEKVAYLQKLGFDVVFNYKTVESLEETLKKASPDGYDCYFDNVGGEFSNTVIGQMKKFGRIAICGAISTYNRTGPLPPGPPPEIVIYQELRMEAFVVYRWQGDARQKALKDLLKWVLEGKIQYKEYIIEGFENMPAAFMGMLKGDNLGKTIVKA", "outline": "as §1"}, "[3]": {"molecular_target": "T3, MAP4K5 Mitogen-activated protein kinase kinase kinase kinase 5 (Homo sapiens, UniProt Q9Y4K4)", "T3 construct": "endogenous in cells; host or cells: MDA-MB-231 (soluble fraction of lysate)", "T3 sequence (Q9Y4K4 whole entry)": "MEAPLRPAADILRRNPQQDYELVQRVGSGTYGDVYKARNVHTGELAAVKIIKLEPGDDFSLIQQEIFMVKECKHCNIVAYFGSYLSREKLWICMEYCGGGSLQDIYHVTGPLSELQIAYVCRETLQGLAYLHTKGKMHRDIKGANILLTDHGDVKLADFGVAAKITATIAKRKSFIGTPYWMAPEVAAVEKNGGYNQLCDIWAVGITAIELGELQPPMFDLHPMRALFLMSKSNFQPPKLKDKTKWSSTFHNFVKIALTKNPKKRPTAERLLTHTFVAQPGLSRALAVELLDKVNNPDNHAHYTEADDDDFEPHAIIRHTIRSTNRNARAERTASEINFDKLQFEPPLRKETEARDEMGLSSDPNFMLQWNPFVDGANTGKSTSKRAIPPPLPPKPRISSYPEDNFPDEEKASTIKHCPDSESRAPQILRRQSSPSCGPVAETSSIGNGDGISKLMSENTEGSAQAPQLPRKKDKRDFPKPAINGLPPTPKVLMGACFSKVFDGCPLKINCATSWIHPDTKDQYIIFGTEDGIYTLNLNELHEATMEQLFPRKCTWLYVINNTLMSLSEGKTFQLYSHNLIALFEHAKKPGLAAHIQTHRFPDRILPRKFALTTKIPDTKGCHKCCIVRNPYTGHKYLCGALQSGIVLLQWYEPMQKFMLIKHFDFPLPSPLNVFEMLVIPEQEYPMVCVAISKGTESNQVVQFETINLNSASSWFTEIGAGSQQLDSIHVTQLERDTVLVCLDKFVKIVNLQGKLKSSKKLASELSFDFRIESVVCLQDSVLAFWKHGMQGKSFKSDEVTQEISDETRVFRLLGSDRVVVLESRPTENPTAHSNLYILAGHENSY", "settings": "50 uM, 231 sol, in vitro", "outline": "as §1"}, "[4]": {"molecular_target": "T4, REEP5 Receptor expression-enhancing protein 5 (Homo sapiens, UniProt Q00765)", "T4 construct": "isoTOP-ABPP experiments performed in cell lysates (in vitro); endogenous in cells; host or cells: soluble proteome of human cancer cell lines (MDA-MB-231, Ramos, Jurkat)", "T4 sequence (Q00765 whole entry)": "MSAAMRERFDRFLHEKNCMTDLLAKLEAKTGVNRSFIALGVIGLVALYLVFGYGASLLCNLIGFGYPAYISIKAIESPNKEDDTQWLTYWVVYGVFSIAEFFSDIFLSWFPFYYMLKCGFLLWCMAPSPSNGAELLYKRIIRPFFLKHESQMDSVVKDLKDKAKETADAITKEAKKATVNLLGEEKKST", "outline": "as §1"}, "[5]": {"molecular_target": "T5, OAT Ornithine aminotransferase, mitochondrial (Homo sapiens, UniProt P04181)", "T5 construct": "isoTOP-ABPP experiments performed in cell lysates (in vitro); endogenous in cells; host or cells: MDA-MB-231 soluble lysate", "T5 sequence (P04181 26-439)": "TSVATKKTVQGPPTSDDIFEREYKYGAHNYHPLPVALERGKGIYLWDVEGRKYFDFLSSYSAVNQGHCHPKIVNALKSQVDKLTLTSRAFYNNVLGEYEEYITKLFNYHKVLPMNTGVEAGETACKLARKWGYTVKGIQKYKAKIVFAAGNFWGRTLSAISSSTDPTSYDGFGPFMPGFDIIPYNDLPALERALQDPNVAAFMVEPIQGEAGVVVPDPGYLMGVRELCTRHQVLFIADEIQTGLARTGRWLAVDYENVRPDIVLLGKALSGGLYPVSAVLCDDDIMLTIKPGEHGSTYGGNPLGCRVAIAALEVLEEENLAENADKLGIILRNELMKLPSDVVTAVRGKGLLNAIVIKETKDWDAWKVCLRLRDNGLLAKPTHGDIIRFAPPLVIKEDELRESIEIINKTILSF", "settings": "for isoTOP-ABPP reactivity ratio at lysine P04181_K66: 50 uM, 231 sol, in vitro", "outline": "as §1"}, "F3 Tissue factor": {"molecular_target": "T6, F3 Tissue factor (Homo sapiens, UniProt P13726)", "T6 construct": "isoTOP-ABPP experiments performed in cell lysates (in vitro); endogenous in cells; host or cells: soluble proteome of human cancer cell lines (MDA-MB-231; Ramos and Jurkat also prepared)", "T6 sequence (P13726 33-295)": "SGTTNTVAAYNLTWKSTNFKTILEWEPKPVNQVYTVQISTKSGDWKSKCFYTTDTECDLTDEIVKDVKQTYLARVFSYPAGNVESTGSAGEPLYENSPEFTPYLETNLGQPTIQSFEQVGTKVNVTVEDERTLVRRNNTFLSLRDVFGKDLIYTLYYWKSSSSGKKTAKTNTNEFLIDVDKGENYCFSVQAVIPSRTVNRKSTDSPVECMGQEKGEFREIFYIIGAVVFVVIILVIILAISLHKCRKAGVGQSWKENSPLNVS", "settings": "for isoTOP-ABPP ratio (R) at liganded lysine P13726_K279: 50 uM, in vitro, sol, 231", "outline": "as §1"}},
  "data": [
    {"compound": "O=C(CCc1cn(-c2ccccc2)nc1-c1ccccc1)Oc1c(F)c(F)c(F)c(F)c1F", "note": "[fragment 19, Pentafluorophenyl 3-(1,3-diphenyl-1H-pyrazol-4-yl)propanoate]", "values": [
      {"measurement": "R value (DMSO/fragment) for probe 1 labeling", "setting": "[1]; Q9H4M9_K511, 50 uM, 231 sol, in vitro", "result": 0.8}
    ]},
    {"compound": "O=C(Oc1c(F)c(F)c(F)c(F)c1F)C(c1ccccc1)c1ccccc1", "note": "[fragment 20, Pentafluorophenyl 2,2-diphenylacetate]", "values": [
      {"measurement": "R value (DMSO/fragment) for probe 1 labeling", "setting": "[2]; Q14914_K194, 50 uM, 231 sol, in vitro", "result": 1.6}
    ]},
    {"compound": "O=C(Oc1c(F)c(F)c(F)c(F)c1F)c1cc(C(F)(F)F)cc(C(F)(F)F)c1", "note": "[fragment 21, Pentafluorophenyl 3,5-bis(trifluoromethyl)benzoate]", "values": [
      {"measurement": "R value (DMSO/fragment) for probe 1 labeling", "setting": "[3]; Q9Y4K4_K49", "result": 0.6}
    ]},
    {"compound": "Cn1cc(CC(=O)Oc2c(F)c(F)c(F)c(F)c2F)c2ccccc21", "note": "[fragment 22, Pentafluorophenyl 2-(1-methyl-1H-indol-3-yl)acetate]", "values": [
      {"measurement": "R value (DMSO/fragment) for probe 1 labeling", "setting": "[4]; Q00765_K147, 50 uM, 231 sol, in vitro", "result": 4.8}
    ]},
    {"compound": "O=C(Oc1c(F)c(F)c(F)c(F)c1F)C1CCN(C(=O)OCc2ccccc2)CC1", "note": "[fragment 24, 1-Benzyl 4-(pentafluorophenyl) piperidine-1,4-dicarboxylate]", "values": [
      {"measurement": "isoTOP-ABPP reactivity ratio at lysine P04181_K66", "setting": "[5]", "result": 0.6}
    ]},
    {"compound": "O=C(CCc1cn(-c2ccccc2)nc1-c1ccccc1)Oc1ccc([N+](=O)[O-])cc1[N+](=O)[O-]", "note": "[fragment 29, 2,4-Dinitrophenyl 3-(1,3-diphenyl-1H-pyrazol-4-yl)propanoate]", "values": [
      {"measurement": "isoTOP-ABPP reactivity ratio at lysine Q9Y4K4_K49", "setting": "[3]", "result": 1.8}
    ]},
    {"compound": "O=C(Oc1ccc([N+](=O)[O-])cc1[N+](=O)[O-])C(c1ccccc1)c1ccccc1", "note": "[fragment 30, 2,4-Dinitrophenyl 2,2-diphenylacetate]", "values": [
      {"measurement": "isoTOP-ABPP reactivity ratio at lysine Q9H4M9_K511", "setting": "[1]; 50 uM, 231 sol, in vitro", "result": 0.9},
      {"measurement": "isoTOP-ABPP reactivity ratio at lysine Q00765_K147", "setting": "[4]; 50 uM, 231 sol, in vitro", "result": 20.0}
    ]},
    {"compound": "O=C(Oc1ccc([N+](=O)[O-])cc1[N+](=O)[O-])c1cc(C(F)(F)F)cc(C(F)(F)F)c1", "note": "[fragment 31, 2,4-Dinitrophenyl 3,5-bis(trifluoromethyl)benzoate]", "values": [
      {"measurement": "isoTOP-ABPP reactivity ratio at lysine Q00765_K147", "setting": "[4]; 50 uM, 231 sol, in vitro", "result": 3.0}
    ]},
    {"compound": "Cn1cc(CC(=O)Oc2ccc([N+](=O)[O-])cc2[N+](=O)[O-])c2ccccc21", "note": "[fragment 32, 2,4-Dinitrophenyl 2-(1-methyl-1H-indol-3-yl)acetate]", "values": [
      {"measurement": "isoTOP-ABPP reactivity ratio at lysine Q9H4M9_K511", "setting": "[1]; 50 uM, 231 sol, in vitro", "result": 1.2},
      {"measurement": "isoTOP-ABPP reactivity ratio at lysine Q9Y4K4_K49", "setting": "[3]", "result": 5.3},
      {"measurement": "isoTOP-ABPP reactivity ratio at lysine P04181_K66", "setting": "[5]", "result": 9.3}
    ]},
    {"compound": "COc1cc(CCC(=O)Oc2ccc([N+](=O)[O-])cc2[N+](=O)[O-])cc(OC)c1OC", "note": "[fragment 33, 2,4-Dinitrophenyl 3-(3,4,5-trimethoxyphenyl)propanoate]", "values": [
      {"measurement": "isoTOP-ABPP reactivity ratio at lysine P04181_K66", "setting": "[5]", "result": 1.0}
    ]},
    {"compound": "O=C(CCc1coc2cc(F)ccc2c1=O)Oc1ccc([N+](=O)[O-])cc1[N+](=O)[O-]", "note": "[fragment 36, 2,4-Dinitrophenyl 3-(7-fluoro-4-oxo-4H-chromen-3-yl)propanoate]", "values": [
      {"measurement": "isoTOP-ABPP ratio (R) at liganded lysine Q14914_K194", "setting": "[2]; 50 uM, in vitro, sol, 231", "result": 1.7}
    ]},
    {"compound": "O=C(Oc1ccc([N+](=O)[O-])cc1[N+](=O)[O-])c1ccc(Oc2ccccc2)cc1", "note": "[fragment 39, 2,4-Dinitrophenyl 4-phenoxybenzoate]", "values": [
      {"measurement": "isoTOP-ABPP ratio (R) at liganded lysine P13726_K279", "setting": "F3 Tissue factor", "result": 1.8},
      {"measurement": "isoTOP-ABPP ratio (R) at liganded lysine Q00765_K147", "setting": "[4]; 50 uM, in vitro, sol, 231", "result": 1.2}
    ]},
    {"compound": "CC(=O)Oc1ccc([N+](=O)[O-])cc1[N+](=O)[O-]", "note": "[fragment 43, 2,4-Dinitrophenyl acetate]", "values": [
      {"measurement": "isoTOP-ABPP ratio (R) at liganded lysine Q9H4M9_K511", "setting": "[1]; 50 uM, in vitro, sol, 231", "result": 20.0},
      {"measurement": "isoTOP-ABPP ratio (R) at liganded lysine P13726_K279", "setting": "F3 Tissue factor", "result": 1.1}
    ]},
    {"compound": "N#Cc1ccc(C(=O)Oc2ccc([N+](=O)[O-])cc2[N+](=O)[O-])cc1", "note": "[fragment 44, 2,4-Dinitrophenyl 4-cyanobenzoate]", "values": [
      {"measurement": "isoTOP-ABPP ratio, lysine P13726_K279", "setting": "F3 Tissue factor; 50 uM_231_sol_in vitro", "result": 1.1}
    ]},
    {"compound": "O=C(CCc1ccc2c(c1)OCO2)Oc1ccc([N+](=O)[O-])cc1[N+](=O)[O-]", "note": "[fragment 45, 2,4-Dinitrophenyl 3-(benzo[d][1,3]dioxol-5-yl)propanoate]", "values": [
      {"measurement": "isoTOP-ABPP ratio, lysine P13726_K279", "setting": "F3 Tissue factor; 50 uM_231_sol_in vitro", "result": 4.2},
      {"measurement": "isoTOP-ABPP ratio, lysine Q14914_K194", "setting": "[2]; 50 uM_231_sol_in vitro", "result": 5.5},
      {"measurement": "isoTOP-ABPP ratio, lysine Q00765_K147", "setting": "[4]; 50 uM_231_sol_in vitro", "result": 2.7}
    ]},
    {"compound": "O=C(Oc1c(F)c(F)c(C(F)(F)F)c(F)c1F)c1cc(C(F)(F)F)cc(C(F)(F)F)c1", "note": "[fragment 47, 2,3,5,6-Tetrafluoro-4-(trifluoromethyl)phenyl 3,5-bis(trifluoromethyl)benzoate]", "values": [
      {"measurement": "isoTOP-ABPP ratio, lysine Q9H4M9_K511", "setting": "[1]; 50 uM_231_sol_in vitro", "result": 20.0}
    ]},
    {"compound": "COC(=O)NC(=NC(=O)OCC1c2ccccc2-c2ccccc21)n1cccn1", "note": "[fragment 49, N-Methoxycarbonyl-N′-9-fluorenylmethoxycarbonyl-pyrazole-1-carboxamidine]", "values": [
      {"measurement": "isoTOP-ABPP ratio, lysine Q14914_K194", "setting": "[2]; 100 uM_231_sol_in vitro", "result": 1.3}
    ]},
    {"compound": "CC(C)(C)OC(=O)N=C(NC(=O)OC(C)(C)C)n1cccn1", "note": "[fragment 50, reference compound]", "values": [
      {"measurement": "isoTOP-ABPP ratio, lysine P13726_K279", "setting": "F3 Tissue factor; 100 uM_231_sol_in vitro", "result": 1.0},
      {"measurement": "isoTOP-ABPP ratio, lysine P04181_K66", "setting": "[5]; 100 uM_231_sol_in vitro", "result": 9.9},
      {"measurement": "isoTOP-ABPP ratio, lysine Q14914_K194", "setting": "[2]; 100 uM_231_sol_in vitro", "result": 1.2}
    ]}
  ]
}
